Structures can show the parent of a compound that is named as a salt. Where two headings read alike, the source gives them in different places.
Key:
[1] = Rate of epimerization of DHE mesylate as a function of pH; assay type: physicochemical
Text: Maintaining the pH above 5.0 in the compositions prepared according to the present invention results in a better stability profile when compared to DHE 45 maintained at a pH of 3.4-4.9.

migraine = conditions: cited from earlier work

Compound | rate of epimerization ([1]; pH of less than 4.0) | rate of epimerization ([1]; pH of more than 5.0) | onset of therapeutic efficacy (migraine; intranasal) [min] | onset of therapeutic efficacy (migraine; oral or sublingual delivery) [min] | onset of action (migraine; parenteral administration)
CN1C[C@H](C(=O)N[C@]2(C)O[C@@]3(O)[C@@H]4CCCN4C(=O)[C@H](Cc4ccccc4)N3C2=O)C[C@@H]2c3cccc4[nH]cc(c34)C[C@H]21 [DHE mesylate, Dihydroergotamine mesylate] | higher | significantly lesser | – | – | –
CN1C[C@H](C(=O)N[C@]2(C)O[C@@]3(O)[C@@H]4CCCN4C(=O)[C@H](Cc4ccccc4)N3C2=O)C[C@@H]2c3cccc4[nH]cc(c34)C[C@H]21 [DHE, Dihydroergotamine] | – | – | 45 | 120 | less than 30 minutes

Reference: patent US11786512B2, “Stable pharmaceutical compositions of dihydroergotamine mesylate” (Slayback Pharma LLC, priority 2019, dated 2023)
